Results on 2 compounds are retold here after patent publication US20100029600A1, “DIHYDRO-TRITERPENES IN THE TREATMENT OF VIRAL INFECTIONS, CARDIOVASCULAR DISEASE, INFLAMMATION, HYPERSENSITIVITY OR PAIN” (priority 2001, published 2010).

Structures are written as SMILES.

For experiment [1], the system named is TPA induced ear inflammation. Description: TPA (phorbolester) induced ear oedema test in the mouse, topical. It counts as in vivo. As to conditions: 0.02 mg per application topical; 3 h after TPA; p<0.05.
Experiment [2] relates to carrageenin-induced paw oedema. Description: Carrageenin-induced paw oedema test in the rat, oral. It counts as in vivo. The note with it: 150 mg/kg oral, p<0.05. On the procedure: Carrageenin, the phlogistic agent of choice for testing antiinflammatory drugs, is a mucopolysaccharide derived from Irish sea moss, Chondrus. Ibuprofen is used as a positive control.
The test article is the composition according to the invention described in example 1 further modified so that the dihydro-triterpenes are predominantly in the form of fatty acid esters (Compound 2). Ibuprofen is obtained from Astion A/S, Denmark. The test article is dissolved in peanut oil, which is used as vehicle.
The study is performed in male SPF Sprague Dawley rats of the stock Mol:SPRD from M & B A/S, Tornbjergvej 40, DK-4623 Lille Skensved. At start of the acclimatisation period the rats are in the weight range of 80-100 g.
The test articles or vehicle are administered orally by gavage in volumes of 20 ml per kg body weight, 0-5 minutes before injection of carrageenin into the foot.
Carrageenin (from Sigma) is prepared as a 1% suspension in sterile 0.9% NaCl-solution. A volume of 0.1 ml is injected through a 25-gauge needle into the plantar tissue of the right hind paw of the rats within 5 minutes after treatment with the test articles.
Immediately before the dosing and carrageenin injection and three and five hours later the foot volume is measured using a plethysmometer LE 7500 from Letica Scientific Instruments, Spain.
(Carrageenan injected into the paw causes an acute inflammation.)

`CCCC(=O)O[C@]1(C(=O)CO)CC[C@H]2[C@@H]3CCC4=CC(=O)CC[C@]4(C)[C@H]3[C@@H](O)C[C@@]21C` [Hydrocortisone 17-butyrate, hydrocortisone 17-butyrate]: the “inhibition of ear swelling” value in experiment [1] amounted to 90%.
In the case of `CC(C)Cc1ccc(C(C)C(=O)O)cc1` (stereo not drawn) [ibuprofen, Ibuprofen], the “inhibition of paw oedema” value in experiment [2] (after five hours) turned out to be 88%; in experiment [2] (after three hours), 81%.
